{
  "source": "patent US12123031B2",
  "about": "“Regulation of CRISPR-associated rossman fold (CARF) domain containing proteins by oligoadenylates” (VILNIUS UNIVERSITY, priority 2017, dated 2024)",
  "key": {"[1]": {"molecular_target": "T1, StCsm complex (Palm domain of StCas10 subunit) (Streptococcus thermophilus, UniProt A0A0A7HFE1)", "T1 construct": "made in house; host or cells: Escherichia coli BL21 (DE3)", "T1 sequence (A0A0A7HFE1 whole entry, the tested form may be a part)": "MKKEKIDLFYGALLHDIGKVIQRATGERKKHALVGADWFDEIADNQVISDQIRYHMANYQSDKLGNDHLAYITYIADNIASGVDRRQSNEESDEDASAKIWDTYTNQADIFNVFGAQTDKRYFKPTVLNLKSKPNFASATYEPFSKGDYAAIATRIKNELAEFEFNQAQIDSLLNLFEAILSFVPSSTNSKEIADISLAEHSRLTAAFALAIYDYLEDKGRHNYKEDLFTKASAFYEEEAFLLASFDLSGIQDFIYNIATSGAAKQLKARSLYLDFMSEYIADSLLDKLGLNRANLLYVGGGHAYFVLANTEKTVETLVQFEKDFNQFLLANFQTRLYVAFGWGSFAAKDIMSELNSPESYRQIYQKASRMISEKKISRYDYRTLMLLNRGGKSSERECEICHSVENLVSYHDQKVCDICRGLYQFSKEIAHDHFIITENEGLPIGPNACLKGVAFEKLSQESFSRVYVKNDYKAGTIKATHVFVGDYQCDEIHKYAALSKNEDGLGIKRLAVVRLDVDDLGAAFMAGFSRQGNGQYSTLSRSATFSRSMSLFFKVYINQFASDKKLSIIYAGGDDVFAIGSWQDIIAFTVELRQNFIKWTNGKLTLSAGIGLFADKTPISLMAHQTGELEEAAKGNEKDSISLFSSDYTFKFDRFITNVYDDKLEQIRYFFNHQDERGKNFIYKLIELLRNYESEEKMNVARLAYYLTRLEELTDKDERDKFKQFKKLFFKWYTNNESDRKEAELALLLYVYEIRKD", "T1 sequence (A0A0A7HF79 whole entry, further chain, the tested form may be a part)": "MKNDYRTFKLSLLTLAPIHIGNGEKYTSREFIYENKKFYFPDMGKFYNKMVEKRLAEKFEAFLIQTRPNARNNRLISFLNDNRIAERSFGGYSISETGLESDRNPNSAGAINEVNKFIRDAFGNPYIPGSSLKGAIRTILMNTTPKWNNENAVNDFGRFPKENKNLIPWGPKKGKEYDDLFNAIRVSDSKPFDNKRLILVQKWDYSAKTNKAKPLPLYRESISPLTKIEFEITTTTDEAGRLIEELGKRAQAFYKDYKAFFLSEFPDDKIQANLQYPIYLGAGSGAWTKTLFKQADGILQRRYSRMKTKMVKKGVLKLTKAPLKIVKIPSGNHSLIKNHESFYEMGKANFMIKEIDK", "T1 sequence (A0A0A7HIF0 whole entry, further chain, the tested form may be a part)": "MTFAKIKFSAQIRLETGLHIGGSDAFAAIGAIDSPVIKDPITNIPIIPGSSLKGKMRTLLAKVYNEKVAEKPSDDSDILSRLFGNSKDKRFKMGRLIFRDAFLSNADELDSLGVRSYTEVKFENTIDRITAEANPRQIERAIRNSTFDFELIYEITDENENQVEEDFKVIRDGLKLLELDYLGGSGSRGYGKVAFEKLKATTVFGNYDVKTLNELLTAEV", "T1 sequence (A0A0A7HGA1 whole entry, further chain, the tested form may be a part)": "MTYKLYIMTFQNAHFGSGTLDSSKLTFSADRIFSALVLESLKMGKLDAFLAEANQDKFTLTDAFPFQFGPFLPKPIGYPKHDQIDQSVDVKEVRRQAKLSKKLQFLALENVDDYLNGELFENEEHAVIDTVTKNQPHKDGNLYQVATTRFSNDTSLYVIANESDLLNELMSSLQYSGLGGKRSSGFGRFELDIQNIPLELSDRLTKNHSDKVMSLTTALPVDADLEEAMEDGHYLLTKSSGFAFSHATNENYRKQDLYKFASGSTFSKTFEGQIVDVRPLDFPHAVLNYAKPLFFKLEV", "T1 sequence (A0A0A7HIX1 whole entry, further chain, the tested form may be a part)": "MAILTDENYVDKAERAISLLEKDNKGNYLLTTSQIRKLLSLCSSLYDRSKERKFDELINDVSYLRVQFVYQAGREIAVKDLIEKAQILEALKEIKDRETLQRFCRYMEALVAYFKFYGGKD", "experiment": "Nucleotide binding assay (EMSA)", "conditions": "for affinity towards nucleotide: EMSA, binary and ternary StCsm", "protocol": "Nucleotide binding assay. Nucleotide binding assays were performed by incubating different amounts of StCsm complexes with 10 nM of ^32P-radiolabeled-nucleoside triphosphates in the Binding buffer (40 mM Tris, 20 mM acetic acid (pH 8.4 at 25° C.), 1 mM EDTA, 0.1 mg/ml BSA, 10% (v/v) glycerol). All reactions were incubated for 15 min at room temperature prior to electrophoresis on native 8% (w/v) polyacrylamide gel (PAAG). Electrophoresis was carried out at room temperature for 2 h at 6 V/cm using 40 mM Tris, 20 mM acetic acid (pH 8.4 at 25° C.), 0.1 mM EDTA as the running buffer. Gels were dried and visualized by a FLA-5100 phosphorimager (Fujifilm).\nNTP binding by binary and ternary StCsm complexes was monitored using EMSA. The binding reactions contained 2 nM of α^32P-radiolabeled and 8 nM of the corresponding non-labeled nucleotide (ATP, 2′dATP, 3′dATP, GTP, UTP or CTP (Perkin Elmer)) in addition to the StCsm complex (without RNA, with the target RNA S3/2 or non-specific RNA NS, as denoted above the gels), at concentrations indicated by each lane. Samples were analyzed in PAAG under non-denaturing conditions."}, "[2]": {"molecular_target": "T2, ternary StCsm complex (Streptococcus thermophilus, UniProt A0A0A7HFE1)", "T2 construct": "made in house; host or cells: Escherichia coli BL21 (DE3)", "T2 sequence (A0A0A7HFE1 whole entry)": "as the sequence (A0A0A7HFE1 whole entry, the tested form may be a part) above", "T2 sequence (A0A0A7HGA1 whole entry, further chain)": "as the sequence (A0A0A7HGA1 whole entry, further chain, the tested form may be a part) above", "T2 sequence (A0A0A7HIF0 whole entry, further chain)": "as the sequence (A0A0A7HIF0 whole entry, further chain, the tested form may be a part) above", "T2 sequence (A0A0A7HIX1 whole entry, further chain)": "as the sequence (A0A0A7HIX1 whole entry, further chain, the tested form may be a part) above", "T2 sequence (A0A0A7HF79 whole entry, further chain)": "as the sequence (A0A0A7HF79 whole entry, further chain, the tested form may be a part) above", "experiment": "StCsm mediated conversion of nucleoside triphosphates to reaction products (TLC)", "assay_type": "biochemical", "conditions": "200 nM ternary StCsm, 50 μM nucleotide, 10 mM CoCl2, 37° C.", "protocol": "StCsm mediated synthesis of cyclic oligoadenylates from ATP. The synthesis reactions of cyclic oligoadenylates by StCsm were initiated by adding 10 mM CoCl2 into a mix of 200 nM StCsm, 200 nM target RNA, 50 μM ATP and 10 nM α^32P-ATP in the Reaction buffer (33 mM Tris-acetate (pH 7.6 at 37° C.), 66 mM K-acetate, 0.1 mg/ml BSA) and carried out at 37° C. for 1 h or 1.5 h, unless stated otherwise. StCsm reactions on different nucleoside triphosphates contained 200 nM of ternary StCsm, 50 μM of the non-labeled nucleotide and 10 nM of the corresponding α^32P-nucleotide. The reactions were stopped by adding 15 mM EDTA. Reaction products were separated by TLC on PEI Cellulose F plates (Merck) in 0.5 M phosphate buffer (pH 3.5 at 23° C.) or a denaturating 24% (19:1 acrylamide:bis-acrylamide) PAAG and visualized using autoradiography.\n(FIG. 1A) ATP reaction of an individual StCas10 subunit. The reactions contained 200 nM StCas10, 50 μM ATP, 10 nM α^32P-ATP (Perkin Elmer), 200 nM target RNA S3/2 and/or 5 nM M13 mp18 ssDNA. The assays were performed at 37° C. in the Reaction buffer supplemented with 10 mM CoCl2. Samples were analyzed by thin-layer chromatography (TLC), followed by phosphorimaging. Reaction products of the binary StCsm complex (Cas/Csm proteins plus crRNA) and ATP in the absence or in the presence of single-stranded (ss) DNA are presented in (FIG. 1B) and (FIG. 1C), respectively. Reaction products of the ternary StCsm complex (Cas/Csm proteins plus crRNA and target RNA) and ATP in the absence or in the presence of ssDNA are presented in (FIG. 1D) and (FIG. 1E), respectively. The reactions contained 200 nM of the binary or ternary StCsm, 50 μM ATP, 10 nM α^32P-ATP and 10 nM M13 mp18 ssDNA. The assays were performed at 37° C. in the Reaction buffer supplemented with 10 mM CoCl2 and the samples were analyzed by TLC, followed by phosphorimaging. Heating α^32P-ATP at 95° C. for 60 min was used to generate radiolabeled ADP and AMP, which were used as a TLC control (marked as lane M). Rate constants of ATP decay, which are presented bellow each TLC plate, were calculated by fitting single exponentials to the substrate depletion data. Cartoons above the graphs depict reaction components: protospacer is grey in between black lines, the complementary strand (matching spacer in crRNA) is lighter grey, DNA is a black circle.\n(FIG. 3A) Cartoons above gels depict ternary StCsm complexes that differ in the bound target RNA molecules in the same manner as in FIG. 1. The agarose gels show degradation patterns of 1 nM of circular M13 mp18 ssDNA in the presence of 5 nM ternary StCsm complexes containing different RNAs FIG. 3A is reproduced from (1). All RNA substrates used here are bound and cleaved by the StCsm ribonuclease (2). (FIG. 3B) Reaction products of various ternary StCsm complexes with ATP. The reactions contained 200 nM of the ternary StCsm with different nucleic acids (NA), 50 μM ATP and 10 nM α^32P-ATP. The assays were performed at 37° C. in the Reaction buffer supplemented with 10 mM CoCl2 and the samples were analyzed by TLC, followed by phosphorimaging. Heating α^32P-ATP at 95° C. for 60 min was used to generate radiolabeled ADP and AMP, which were used as a TLC control (marked as lane M).\n(A) Ternary StCsm complex was incubated with ATP, 2′dATP, 3′dATP, GTP, CTP or UTP radiolabeled nucleotides. The reactions contained 200 nM of the ternary StCsm, 50 μM of the non-labeled nucleotide and 10 nM of the corresponding α^32P-nucleotide. The assays were performed at 37° C. for 60 min in the Reaction buffer supplemented with 10 mM CoCl2 and samples were analyzed by TLC, followed by phosphorimaging. (B) The products of StCsm-mediated 2′dATP reaction were further analyzed by ion pair reverse-phase (RP) HPLC-MS. On the left panel, HPLC analysis is presented. On the right panels, the isotopic patterns of ions (without one, (M-H)-, or two (M-2H)2-protons) of the identified compounds are presented."}, "[3]": {"molecular_target": "T3, StCsm6 (Streptococcus thermophilus, UniProt A0A0A7HIX6)", "T3 construct": "HSH (StrepII tag plus two 6xHis tags) (N); made in house; host or cells: E. coli DH10B (ara)", "T3 sequence (A0A0A7HIX6 1-428)": "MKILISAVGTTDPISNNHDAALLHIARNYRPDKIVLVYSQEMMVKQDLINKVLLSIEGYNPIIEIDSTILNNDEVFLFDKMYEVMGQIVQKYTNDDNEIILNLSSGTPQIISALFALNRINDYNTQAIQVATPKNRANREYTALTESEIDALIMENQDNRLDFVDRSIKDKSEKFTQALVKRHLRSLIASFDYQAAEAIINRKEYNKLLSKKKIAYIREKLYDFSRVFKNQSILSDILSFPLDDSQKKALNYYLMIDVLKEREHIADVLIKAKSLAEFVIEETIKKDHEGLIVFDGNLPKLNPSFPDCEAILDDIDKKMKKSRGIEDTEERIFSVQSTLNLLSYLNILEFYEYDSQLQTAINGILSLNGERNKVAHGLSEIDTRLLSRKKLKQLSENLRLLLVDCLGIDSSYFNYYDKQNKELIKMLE", "experiment": "Csm6 nuclease assay, StCsm6", "assay_type": "biochemical", "procedure": "Csm6 nuclease assay. […] 5′P-oligoadenylates were obtained by incubating 3.(3) μM of non-phosphorylated linear oligoadenylate with 0.5 U T4 polynucleotide kinase and 1 mM ATP in the Reaction buffer A at 37° C. for 40 min.\nReactions were started by adding 0-10 μM Csm6 and carried out at 37° C. The reaction products were separated on a denaturing 15% (29:1 acrylamide:bis-acrylamide) PAAG and visualized by autoradiography. StCsm6 nuclease assays with ATP additionally contained 1 mM of ATP in the reaction mixture."}, "[4]": {"molecular_target": "T4, StCsm6′ (Streptococcus thermophilus, UniProt A0A0A7HFE6)", "T4 construct": "HSH (StrepII tag plus two 6xHis tags) (N); made in house; host or cells: E. coli DH10B (ara)", "T4 sequence (A0A0A7HFE6 whole entry)": "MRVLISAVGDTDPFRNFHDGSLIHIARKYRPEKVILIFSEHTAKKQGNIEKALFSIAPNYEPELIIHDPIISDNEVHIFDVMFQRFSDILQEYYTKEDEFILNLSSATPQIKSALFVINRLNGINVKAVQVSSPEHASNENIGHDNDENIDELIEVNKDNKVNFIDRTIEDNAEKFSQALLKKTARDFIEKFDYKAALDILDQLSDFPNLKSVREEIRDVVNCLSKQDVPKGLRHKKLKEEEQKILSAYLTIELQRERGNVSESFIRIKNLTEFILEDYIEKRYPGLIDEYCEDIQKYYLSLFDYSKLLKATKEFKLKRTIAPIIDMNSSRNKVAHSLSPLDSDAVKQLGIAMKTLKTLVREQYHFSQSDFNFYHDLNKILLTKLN", "experiment": "Csm6 nuclease assay, StCsm6′", "assay_type": "biochemical", "conditions": "ssRNA NS, 37° C. 30 min, 50 nM individual cyclic oligoadenylate", "protocol": "Csm6 nuclease assay. StCsm6, StCsm6′, and TtCsm6 nuclease assays were conducted in the Reaction buffer (33 mM Tris-acetate (pH 7.6 at 37° C.), 66 mM K-acetate, 0.1 mg/ml BSA) supplemented with 1 mM EDTA and containing 5 nM of 5′-radiolabeled and 5 nM of unlabeled RNA NS (unless stated otherwise; see all RNA substrates used in this study in Table 1) and 500 nM of cyclic oligoadenylate mixture or 0.5-500 nM of the HPLC purified cyclic oligoadenylate effectors or 5-500 nM linear oligoadenylate with various phosphorylation levels—linear oligoadenylate 5′-triphosphate (ChemGenes); non-phosphorylated, 3′P (Metabion) or 5′P containing linear oligoadenylates. 5′P-oligoadenylates were obtained by incubating 3.(3) μM of non-phosphorylated linear oligoadenylate with 0.5 U T4 polynucleotide kinase and 1 mM ATP in the Reaction buffer A at 37° C. for 40 min. […]\n(FIG. 20A) Domain arrangement of StCsm6′. […] The elution profile of the StCsm6′ is presented with the calculated experimental molecular weight 108.1 kDa, corresponding to protein dimer. […]\nAnalysis of StCsm6 (FIG. 23A) and StCsm6′ (FIG. 23B) cleavage of ssRNA NS in the absence or presence of synthetic c(AMP)2 (c-di-AMP) (Sigma-Aldrich) or HPLC isolated c(AMP)3, c(AMP)4, c(AMP)5 (synthesized by StCsm from ATP) or c(AMP)6 (synthesized by StCsm from pp(pA)6 precursor). […] Samples were analyzed in denaturing PAAG, followed by phosphorimaging. […]"}},
  "data": [
    {"smiles": "Nc1ncnc2c1ncn2[C@H]1C[C@H](O)[C@@H](COP(=O)(O)OP(=O)(O)OP(=O)(O)O)O1", "note": "[2′dATP]", "values": [
      {"measurement": "binding affinity, ternary StCsm complex", "setting": "[1]; target RNA bound (ternary StCsm complex)", "value": "visibly decreases"},
      {"measurement": "reaction products formed from the nucleotide alone", "setting": "[2]", "value": "reacts with significantly lower efficiency"}
    ]},
    {"smiles": "Nc1ncnc2c1ncn2[C@@H]1O[C@H](COP(=O)(O)OP(=O)(O)OP(=O)(O)O)C[C@H]1O", "note": "[3′dATP]", "values": [
      {"measurement": "reaction products formed from the nucleotide alone", "setting": "[2]", "value": "does not produce any reaction products"}
    ]},
    {"smiles": "Nc1ncnc2c1ncn2[C@@H]1O[C@H](COP(=O)(O)O)[C@@H](O)[C@H]1O", "note": "[AMP, adenosine monophosphate]", "values": [
      {"measurement": "reaction products formed from the nucleotide alone", "setting": "[2]", "value": "yields no products"}
    ]},
    {"smiles": "Nc1ncnc2c1ncn2[C@@H]1O[C@H](COP(=O)(O)OP(=O)(O)OP(=O)(O)O)[C@@H](O)[C@H]1O", "note": "[ATP, adenosine triphosphate]", "values": [
      {"measurement": "Kd", "setting": "[1]; in the presence or absence of target RNA", "value": "10 to 20", "unit": "nM"},
      {"measurement": "inhibition of StCsm6 RNase", "setting": "[3]; 1 mM ATP", "value": "inhibited"}
    ]},
    {"smiles": "Nc1ccn([C@@H]2O[C@H](COP(=O)(O)OP(=O)(O)OP(=O)(O)O)[C@@H](O)[C@H]2O)c(=O)n1", "note": "[CTP]", "values": [
      {"measurement": "affinity towards nucleotide", "setting": "[1]", "value": "no significant affinity"},
      {"measurement": "reaction products formed from the nucleotide alone", "setting": "[2]", "value": "no reaction products are formed"}
    ]},
    {"smiles": "Nc1nc2c(ncn2[C@@H]2O[C@H](COP(=O)(O)OP(=O)(O)OP(=O)(O)O)[C@@H](O)[C@H]2O)c(=O)[nH]1", "note": "[GTP]", "values": [
      {"measurement": "affinity towards nucleotide", "setting": "[1]", "value": "no significant affinity"},
      {"measurement": "reaction products formed from the nucleotide alone", "setting": "[2]", "value": "no reaction products are formed"}
    ]},
    {"smiles": "O=c1ccn([C@@H]2O[C@H](COP(=O)(O)OP(=O)(O)OP(=O)(O)O)[C@@H](O)[C@H]2O)c(=O)[nH]1", "note": "[UTP]", "values": [
      {"measurement": "affinity towards nucleotide", "setting": "[1]", "value": "no significant affinity"},
      {"measurement": "reaction products formed from the nucleotide alone", "setting": "[2]", "value": "no reaction products are formed"}
    ]},
    {"smiles": "Nc1ncnc2c1ncn2[C@@H]1O[C@@H]2COP(=O)(O)O[C@H]3[C@@H](O)[C@H](n4cnc5c(N)ncnc54)O[C@@H]3COP(=O)(O)O[C@H]2[C@H]1O", "note": "[c(AMP)2, c-di-AMP]", "values": [
      {"measurement": "stimulation of StCsm6′ ribonuclease activity", "setting": "[4]", "value": "only c(AMP)6 stimulated"},
      {"measurement": "stimulation of StCsm6 ribonuclease activity", "setting": "[3]; ssRNA NS, 37° C. 30 min, 50 nM individual cyclic oligoadenylate", "value": "only c(AMP)6 stimulated"}
    ]}
  ]
}
